The values below come from patent EP0428423A2, “Aryloxy alkyl benzenes, processes for their preparation and pharmaceutical compositions containing them” (LIPHA S.A., priority 1989, dated 1991).

Molecules are shown by their SMILES.

In one experiment the target is T1, lipoxygénase de soja (Glycine max, UniProt P08170).
T1 sequence (P08170 1-839): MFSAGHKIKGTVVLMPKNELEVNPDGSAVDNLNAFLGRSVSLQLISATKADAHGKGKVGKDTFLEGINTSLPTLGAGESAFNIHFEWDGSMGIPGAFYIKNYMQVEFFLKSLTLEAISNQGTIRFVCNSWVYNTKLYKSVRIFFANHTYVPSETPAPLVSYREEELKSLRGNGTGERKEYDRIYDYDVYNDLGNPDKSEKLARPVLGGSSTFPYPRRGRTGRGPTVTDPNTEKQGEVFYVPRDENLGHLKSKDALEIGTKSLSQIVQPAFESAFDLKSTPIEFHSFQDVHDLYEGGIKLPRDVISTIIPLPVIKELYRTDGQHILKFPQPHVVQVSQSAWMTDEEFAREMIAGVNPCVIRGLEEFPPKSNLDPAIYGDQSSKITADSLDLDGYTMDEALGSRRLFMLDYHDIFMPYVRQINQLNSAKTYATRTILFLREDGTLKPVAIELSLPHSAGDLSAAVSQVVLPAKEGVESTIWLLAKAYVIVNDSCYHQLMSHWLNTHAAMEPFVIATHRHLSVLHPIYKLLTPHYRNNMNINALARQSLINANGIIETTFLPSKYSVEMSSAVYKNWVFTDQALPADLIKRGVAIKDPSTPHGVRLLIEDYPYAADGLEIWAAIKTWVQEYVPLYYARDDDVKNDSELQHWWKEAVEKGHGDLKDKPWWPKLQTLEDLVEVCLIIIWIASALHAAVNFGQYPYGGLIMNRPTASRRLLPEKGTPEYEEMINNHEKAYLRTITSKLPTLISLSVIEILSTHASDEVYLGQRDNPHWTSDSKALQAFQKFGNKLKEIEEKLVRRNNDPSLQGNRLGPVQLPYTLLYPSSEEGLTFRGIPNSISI
In words: Anti-lipoxygenase action on soybean lipoxygenase. It is filed as biochemical. From the text:
L'action anti-lipoxygénase a été étudiée sur la lipoxygénase de soja selon la méthode décrite par W.L SMITH et W.E LANDS (J. Biol. Chem. 247 (1972) 1038-1047)

For experiment [1], the system named is rats mâles SHR (souche OKAMOTO). As to the kind of experiment: Antihypertensive action in the non-anaesthetised SHR rat (systolic blood pressure, sphygmomanometric method). The settings on record: A = Aigu, 100 mg/kg PO, 24 h after dosing. It is filed as in vivo. From the text: L'étude a été effectuée sur des lots de rats mâles SHR (souche OKAMOTO) âgés de 16 semaines. La pression artérielle systolique est déterminée par la méthode sphygmomanométrique (électro sphygmogra- phe NARCO biosystems type PE 300). Les mesures de tension sont réalisées 24 heures après administration d'un composé de formule générale I, la pression artérielle systolique est calculée à partir de la moyenne de 6 à 8 mesures.

For the next experiment, the system named is RAT. As to the kind of experiment: Diuretic activity in the rat (hourly urine volume, sodium and potassium assay). It is filed as in vivo. The settings on record: po; R = RAT; diuretic activity; read-out: Dose minimale active. The source says: (§1) d'urine sont déterminés toutes les heures. Le dosage de sodium et du potassium est effectué par spectrophotométrie.

In a further experiment the test system is SOURIS. In words: Diuretic activity in the mouse (hourly urine volume, sodium and potassium assay). The settings on record: Mus musculus, po; S = SOURIS; diuretic activity; read-out: Dose minimale active. It counts as in vivo.
Description: as §1

Experiment [2] has as its system plasmas riches en plaquettes provenant de sang de rat. As to the kind of experiment: Platelet anti-aggregation in vitro, ADP-induced (Born aggregometer). It is filed as cell-based. The settings on record: in vitro, aggregating agent ADP, rat platelet-rich plasma, 37°; M not defined in the text; mM printed only in the TICLOPIDINE line. The protocol:
Les études ont été réalisées sur des plasmas riches en plaquettes provenant de sang de rat, l'agrégation étant induite par addition d'acide Adénosine diphosphorique. Les courbes néphélométriques d'agrégation sont obtenues en utilisant un agrégomètre de type BORN, le plasma étant placé en incubation à 37° avec agitation continue de 1100 t/mn (cf. BORN G.V.R et CROSS J. - J. Physiol. 168 (1962) 178.

Another experiment has as its target T2, ECHANGEUR D'ANIONS (Homo sapiens, UniProt P02730).
T2 construct: systèmes de transport du sodium et du potassium des érythrocytes humains; endogenous in cells; host or cells: human erythrocytes
T2 sequence (P02730 1-911): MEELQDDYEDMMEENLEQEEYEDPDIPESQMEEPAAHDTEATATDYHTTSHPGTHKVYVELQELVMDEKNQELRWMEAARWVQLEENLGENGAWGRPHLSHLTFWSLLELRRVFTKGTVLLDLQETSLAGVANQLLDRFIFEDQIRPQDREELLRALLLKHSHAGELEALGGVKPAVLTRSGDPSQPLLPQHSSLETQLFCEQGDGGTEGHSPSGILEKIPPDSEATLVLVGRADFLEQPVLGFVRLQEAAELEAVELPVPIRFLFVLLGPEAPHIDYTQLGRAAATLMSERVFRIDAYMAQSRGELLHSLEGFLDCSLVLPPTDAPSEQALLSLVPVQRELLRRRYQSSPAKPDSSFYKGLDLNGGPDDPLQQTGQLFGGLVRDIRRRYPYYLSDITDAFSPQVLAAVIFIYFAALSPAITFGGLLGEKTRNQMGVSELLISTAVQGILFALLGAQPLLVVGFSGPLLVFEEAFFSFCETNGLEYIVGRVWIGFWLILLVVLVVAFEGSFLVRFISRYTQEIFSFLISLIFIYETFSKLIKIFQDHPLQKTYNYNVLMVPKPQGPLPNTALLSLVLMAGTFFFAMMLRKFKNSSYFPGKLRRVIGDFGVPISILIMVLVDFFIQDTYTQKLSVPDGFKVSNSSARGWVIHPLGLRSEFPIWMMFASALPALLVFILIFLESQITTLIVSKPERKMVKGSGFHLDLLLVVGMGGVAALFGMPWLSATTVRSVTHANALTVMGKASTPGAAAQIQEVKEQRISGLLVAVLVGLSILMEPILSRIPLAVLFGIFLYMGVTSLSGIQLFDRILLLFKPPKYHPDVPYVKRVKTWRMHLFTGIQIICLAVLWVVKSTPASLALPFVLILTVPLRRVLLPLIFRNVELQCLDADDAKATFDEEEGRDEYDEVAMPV
In words: Anion exchanger of human erythrocytes. It counts as cell-based, ERYTHROCYTES HUMAINS. The conditions noted are these: read-out: EFFET SUR L'ECHANGEUR D'ANIONS IC 50. The source says: Cet effet a été étudié selon la méthodologie décrite par G. GARAY et coll. dans Naunyn-Schmidberg's Arch. Pharmakol. 334 (1986) 202-209 et dans Bioch. Pharm. 33 (1984) 2013-2020.

As for `Cc1ccc(O)c(CCOc2ccccc2)c1` [ex 36], at lipoxygénase de soja, the “ACTIVITE ANTI-LIPOXYGENASE IC 50” value is “Inactif”. The “Variation de l'effet anti-hyper-tenseur 24 heures après produit” value in experiment [1] was “Non actif”. Besides, the minimal effective dose in the experiment with RAT and with SOURIS was 100 mg/kg each time. Besides, the “M à 50” value in experiment [2] is listed as “inactif”. Also, the IC50 at ECHANGEUR D'ANIONS was 800 nM.
